Reference: patent US8933232B2, “1,3,4-oxadiazole and 1,3,4-thiadiazole beta-lactamase inhibitors” (priority 2012, dated 2015)
Structures can show the parent of a compound that is named as a salt.

Tested on: bacterial strains that express KPC β-lactamases
Assay: Synergy MIC / standard BLI potentiation MIC assay against strains expressing KPC β-lactamases
Format: cell-based
Conditions: in the presence of a β-lactam; comparator Avibactam
Outline: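 Broth microdilution per modified CLSI M07-A9 in CAMHB, ~10^5 CFU/mL, 18-20 h at 37 °C with aeration; engineered E. coli carrying cloned β-lactamase plasmids kept in 25 μg/mL tetracycline. β-Lactam MIC read with BLI fixed at 4 μg/mL, or BLI serially diluted against fixed β-lactam; MIC = lowest concentration without visible turbidity.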

Row | Structure (SMILES) | more active than Avibactam for at least one bacterial strain that expresses KPC β-lactamase and/or better spectrum of activity against KPC strains
1 | O=C1N2C[C@@H](CC[C@H]2c2nnc(CCN3CCNCC3)o2)N1OS(=O)(=O)O [Compound 776, (2S,5R)-7-oxo-2-(5-(2-(piperazin-1-yl)ethyl)-1,3,4-oxadiazol-2-yl)-1,6-diazabicyclo[3.2.1]octan-6-yl hydrogen sulfate] | more active than Avibactam
2 | O=C1N2C[C@@H](CC[C@H]2c2nnc(CN3CCNCC3)o2)N1OS(=O)(=O)O [Compound 777, (2S,5R)-7-oxo-2-(5-(piperazin-1-ylmethyl)-1,3,4-oxadiazol-2-yl)-1,6-diazabicyclo[3.2.1]octan-6-yl hydrogen sulfate] | more active than Avibactam
3 | O=C1N2C[C@@H](CC[C@H]2c2nnc([C@H]3CNCCN3)o2)N1OS(=O)(=O)O [Compound 779, (2S,5R)-7-oxo-2-(5-((R)-piperazin-2-yl)-1,3,4-oxadiazol-2-yl)-1,6-diazabicyclo[3.2.1]octan-6-yl hydrogen sulfate] | more active than Avibactam
4 | C[n+]1ccc(-c2nnc([C@@H]3CC[C@@H]4CN3C(=O)N4OS(=O)(=O)[O-])o2)cc1 [Compound 782, (2S,5R)-2-(5-(1-methylpyridin-1-ium-4-yl)-1,3,4-oxadiazol-2-yl)-7-oxo-1,6-diazabicyclo[3.2.1]octan-6-yl sulfate] | more active than Avibactam
5 | N[C@H]1C[C@H](c2nnc([C@@H]3CC[C@@H]4CN3C(=O)N4OS(=O)(=O)O)s2)C1 [Compound 783, (2S,5R)-2-(5-((1r,3S)-3-aminocyclobutyl)-1,3,4-thiadiazol-2-yl)-7-oxo-1,6-diazabicyclo[3.2.1]octan-6-yl hydrogen sulfate] | more active than Avibactam
6 | N=C(N)N[C@H]1C[C@@H](c2nnc([C@@H]3CC[C@@H]4CN3C(=O)N4OS(=O)(=O)O)s2)C1 [Compound 784, (2S,5R)-2-(5-((1s,3R)-3-guanidinocyclobutyl)-1,3,4-thiadiazol-2-yl)-7-oxo-1,6-diazabicyclo[3.2.1]octan-6-yl hydrogen sulfate] | more active than Avibactam
7 | N=C(N)NCCc1nnc([C@@H]2CC[C@@H]3CN2C(=O)N3OS(=O)(=O)O)s1 [Compound 794, (2S,5R)-2-(5-(2-guanidinoethyl)-1,3,4-thiadiazol-2-yl)-7-oxo-1,6-diazabicyclo[3.2.1]octan-6-yl hydrogen sulfate] | more active than Avibactam
8 | N[C@H]1C[C@@H](c2nnc([C@@H]3CC[C@@H]4CN3C(=O)N4OS(=O)(=O)O)s2)C1 [Compound 795, (2S,5R)-2-(5-((1s,3R)-3-aminocyclobutyl)-1,3,4-thiadiazol-2-yl)-7-oxo-1,6-diazabicyclo[3.2.1]octan-6-yl hydrogen sulfate] | more active than Avibactam
